These results are taken from patent publication US20060229256A1, “Enternal administration of arginine and glutamine for abnormal vascular proliferation” (Bristol-Myers Squibb Company, priority 2003, published 2006).

Assay [1] concerns VEGF mRNA. The experiment in a line: VEGF mRNA in retina of oxygen-induced retinopathy mice (real-time RT-PCR). The following applies: 5 g/kg/d parenteral, day 5 after removal from high oxygen, P=0.007. The class given is in vivo, mouse. The procedure:
(§1) In the neonatal mouse model of oxygen-induced retinopathy, 7-day old mice were placed with their nursing dams in a 75% oxygen atmosphere for 5 days. (Smith et al., Invest Ophthalmol Vis Sci., 35(1):101-111 (1994). Mouse pups received twice daily intra-peritoneal injections (50 μl) starting on postnatal day 12 (P12) and continuing through postnatal day 17 (P17). In one experiment, injections included vehicle (0.9% sodium chloride) and the test compounds Ala-gly (5 g/kg/d), Arg-gln dipeptide (5 g/kg/d) and in a second experiment, different doses of Arg-gln (1.0, 2.5 and 5 g/kg/d) were tested.
For total RNA isolations from retina the animals were sacrificed and the eyes removed. The retina were then dissected away from the eye and stored in RNAlater® buffer (Ambion, Austin, Tex.) at 4° C. for subsequent isolation of protein or RNA.
VEGF protein concentration was determined from isolated mouse retinas using the Quantikine® Human VEGF Immunoassay ELISA kit (R&D Systems, Minneapolis, Minn.). Pups were treated with the 5 g/kg/d dose of dipeptide and at varying time points after the pups were removed from oxygen on day 12. Eyes were enucleated at 0.5, 1 and 5 days post removal from high oxygen (n=14 eyes for each data point). Vehicle treated animals were compared to dipeptide-treated animals. […]

Assay [2] concerns neonatal mouse model of oxygen-induced retinopathy. The experiment in a line: Neonatal mouse model of oxygen-induced retinopathy, gavage (enteral) administration, pre-retinal nuclei count. It is filed as in vivo. The following applies: gavage, 1, 2.5 and 5 gm/kg·day, P12-P17, versus vehicle; dose/response, highest effectiveness at 5 gm/kg·day. The source says:
In the neonatal mouse model of oxygen-induced retinopathy, 7-day old mice were placed with their nursing dams in a 75% oxygen atmosphere for 5 days. Mouse pups received twice a day gavage feedings of dipeptide or control solution (50 microliter) starting on postnatal day 12 (P12) and continuing through postnatal day 17 (P17). Gavage feeds included vehicle (0.9% sodium chloride) and the test compounds and different doses of Arg-Gln (1.0, 2.5 and 5 gm/kg/d). The daily dosage of the dipeptide was divided evenly between the two daily gavage feedings.
After the fifth day following return to normoxia (P17), the animals were euthanized by injection of a lethal dose of a combination of ketamine (70 mg/kg body weight) and xylazine (15 mg/kg body weight) followed by cervical dislocation. The eyes were removed and fixed in 4% paraformaldehyde, embedded in paraffin, and sectioned. Pre-retinal nuclei were counted by masked observers. Efficacy of treatment was calculated as the percent average nuclei per section in the eyes of Arg-Gln treated animals versus control animals.

For assay [3] the test system is unchanged. Nature of the assay: Neonatal mouse model of oxygen-induced retinopathy, intra-peritoneal injection, pre-retinal nuclei count and retinal flat mounts. The following applies: for reduction in preretinal nuclei / preretinal vascularization: 5 g/kg/d intra-peritoneal, twice daily, P12-P17, versus vehicle. The class given is in vivo. The procedure:
as §1
After the fifth day following return to normoxia (P17), the animals were euthanized by injection of a lethal dose of a combination of ketamine (70 mg/kg body weight) and xylazine (15 mg/kg body weight) followed by cervical dislocation. The eyes were removed and fixed in 4% paraformaldehyde, embedded in paraffin, and sectioned as previously described. (Smith et al., Id.) Pre-retinal nuclei were counted by masked observers. Efficacy of treatment was calculated as the percent average nuclei per section in the eyes of Arg-Gln treated animals versus control animals.
All data represent the mean±SEM. ANOVA was used to evaluate differences among groups, and individual contrasts were done using Student t-tests with Bonferroni correction was used to determine the significance between groups.

In assay [4] the test system is vascular endothelial cell growth factor (VEGF) in human retinal pigment epithelial cells (hRPE). Nature of the assay: VEGF secretion by human retinal pigment epithelial cells (VEGF ELISA of culture medium). The class given is cell-based. How it is done: Human eyes were obtained from the National Disease Resource Interchange within 36 h of death. hRPE cells were prepared and maintained as described by Grant et al., in Curr. Eye Res., 9(4):323-335 (1990), and Enzmann et al., in Transpl Immunol, March 7(1): 9-14 (1999). For cell culture experiments, hRPE from passages 3-5 were used. All tissue culture media was purchased from Mediatech, Inc., Herndon, Fla. hRPE cultures were placed in glutamine-free medium for 24 hrs and then were exposed either to 0, 0.5, 1, 2.5 or 5 mg/ml of Arg-gln dipeptide for 48 hrs. At the end of 48 hrs, VEGF content of the culture medium containing the hRPE cells was measured using the Quantikine® Human VEGF Immunoassay ELISA kit (R&D Systems, Minneapolis, Minn.).
A general note: In an ELISA, binding on a coated surface is turned into a signal by an enzyme label.

Where “and” joins values, the source holds several entries; their conditions need not be identical. Identical values can stand only once.

arginyl-glutamine dipeptide [Arg-gln]: the “VEGF mRNA in retina versus vehicle-treated pups” value in assay [1] is listed as “significant reduction”; in assay [1] (listed as Arg-gln dipeptide), “much lower”. In assay [2], the “average nuclei per section in the eyes (FIG. 4)” value is on record as “decreased at all levels of administration”. For the same substance, in assay [3] (1.0, 2.5 and 5.0 g/kg/d intra-peritoneal, five days of treatment, P<0.00001), the “effect on preretinal nuclei, all doses” value was “significant reduction”. The “effect on preretinal nuclei at the lowest dose tested (FIG. 2)” value in assay [3] (1 gm/kg·day intra-peritoneal, P12-P17) was “significant reduction”. Also, the “reduction in preretinal nuclei / preretinal vascularization” value in assay [3] was ~80% and 82±7%; in assay [3] (listed as Arg-gln dipeptide), 80%. For the same substance, the “retinal flat mounts (fluorescently labeled dextran): neovascular tufts and vascular leakage” value in assay [3] (Arg-gln treated pups compared to control dipeptide Ala-gly treated pups) was “reduced neovascular tufts and vascular leakage”. Also, in assay [4] (0-5 mg/ml, 48 hrs), the “effect on VEGF secretion as a function of the level of Arg-gln (FIG. 1)” value was “statistically significant dose-dependent decrease”. Further, in assay [4] (1.5 mM Arg-gln, 48 hrs exposure after 24 hrs in glutamine-free medium, P=0.002), the “decrease in soluble VEGF expression into the culture medium” value was 52.3±6.2%.

Ala-gly [reference compound]: the “reduction in preretinal nuclei / preretinal vascularization” value in assay [3] is on record as 2±5%.
